PMC6270246, “Anthraquinones of the Roots of Pentas micrantha” (Molecules, 2012)
Like-named read-outs stand apart in the source and are kept apart here.

Columns and labels:
[1] = Cytotoxicity assay (PrestoBlue cell viability, 48 h); type: cell-based; details: human, MCF-7 breast cancer cells, MCF-7 cells, mean of at least six independent experiments, read-out: CC50 (cytotoxic concentration)
Description: MCF-7 human breast cancer cells were cultured in Dulbecco’s modified eagle medium (DMEM) supplemented with 10% (v/v) fetal bovine serum, 2 mM L-glutamine, 100 units/mL penicillin and 100 µg/mL streptomycin at 37 °C in humidified 5% CO2. For cytotoxicity assays, cells were seeded in 96-well plates at optimal cell density to ensure exponential growth for the duration of the assay. After a 24-h preincubation growth, the medium was replaced with experimental medium containing the appropriate drug concentrations or vehicle controls (0.1% or 1.0% v/v DMSO). After 48 h incubation, cell viability was measured using PrestoBlue™ Cell Viability Reagent (Invitrogen Ab, Lidingö, Sweden) according to the manufacturer’s instructions. […] Results were expressed as the mean ± standard error for six replicates as a percentage of vehicle control (taken as 100%). Experiments were performed independently at least six times. Statistical analyses were performed using a two-tailed Student’s t-test. p < 0.05 was considered to be statistically significant.

[2] = system: Sierra Leone D6 chloroquine-sensitive Plasmodium falciparum strain; set-up: method as in PMID 21979929; details: P. falciparum D6 strain; in vitro; bioactivity previously published; cited from earlier work
[3] = system: Indochina W2 chloroquine-resistant Plasmodium falciparum strain; set-up: method as in PMID 21979929; details: P. falciparum W2 strain; in vitro; bioactivity previously published; cited from earlier work
[4] = system: MCF-7 human breast cancer cells; set-up: method as in PMID 21979929; details: MCF-7 cells; bioactivity previously published; read-out: CC50 (cytotoxic concentration); cited from earlier work
[5] = system: Sierra Leone D6 chloroquine-sensitive Plasmodium falciparum strain; assay: Malaria SYBR Green I-based in vitro drug susceptibility assay, D6 strain; type: cell-based
Description: (§1) For cytotoxicity (CC50) assay 1-isopropyl-3-(pyridin-4-ylethynyl)-1H-pyrazolo[3,4-d]pyrimidin-4-amine was used as reference substance.
(§2) Sierra Leone D6 chloroquine-sensitive and the Indochina W2 chloroquine-resistant Plasmodium falciparum strains (donated by the Walter Reed Army Institute for Research [WRAIR], 503 Robert Grant Avenue, Silver Spring, MD 20910, USA) were maintained in continuous culture to attain replication robustness prior to assays. Drug susceptibility was tested by the Malaria SYBR Green I-based in vitro assay technique.

[6] = system: Indochina W2 chloroquine-resistant Plasmodium falciparum strain; assay: Malaria SYBR Green I-based in vitro drug susceptibility assay, W2 strain; type: cell-based
Description: as §1, §2

Row | SMILES | IC50 [2] [µM] | IC50 [3] [µM] | CC50 [4] [µM] | further results
1 | CC(C)n1nc(C#Cc2ccncc2)c2c(N)ncnc21 [1-isopropyl-3-(pyridin-4-ylethynyl)-1H-pyrazolo[3,4-d]pyrimidin-4-amine, reference compound] | – | – | – | CC50 at 48 h [1]: 5 µM
2 | Cc1ccc2c(c1)C(=O)c1ccccc1C2=O [Compound 1, tectoquinone] | 30.36 ± 0.01 | 48.56 ± 0.01 | > 100 | –
3 | COCc1c(O)cc2c(c1O)C(=O)c1ccccc1C2=O [Compound 2, lucidin-ω-methyl ether] | 42.54 ± 0.01 | 46.44 ± 0.01 | > 352 | –
4 | COc1c(CO)c(O)cc2c1C(=O)c1ccccc1C2=O [Compound 3, damnacanthol] | 56.6 | 110.6 ± 0.01 | 238 | –
5 | COc1c(C)c(O)cc2c1C(=O)c1ccccc1C2=O [Compound 4, rubiadin-1-methyl ether] | 45.07 ± 0.01 | 70.6 | 208 | –
6 | Cc1c(O)cc2c(c1O)C(=O)c1ccccc1C2=O [Compound 5, rubiadin] | 21.5 | 31.91 ± 0.01 | 310 | –
7 | COCc1c(O)cc2c(c1O)C(=O)c1ccc(O)c(O)c1C2=O [Compound 6, 1,3,5,6-tetrahydroxy-2-(methoxymethyl)-9,10-anthraquinone] | – | – | – | IC50 ([5]; P. falciparum D6 strain, in vitro, mean of at least 3 independent experiments, read-out: IC50 D6): 31.84 ± 0.01 µM; IC50 ([6]; P. falciparum W2 strain, in vitro, mean of at least 3 independent experiments, read-out: IC50 W2): 35.41 ± 0.01 µM; CC50 at 48 h [1]: 258 µM
8 | COc1c(C=O)c(O)cc2c1C(=O)c1ccccc1C2=O [Compound 7, damnacanthal] | 27.2 | 38.6 | 316 | –
9 | COc1c(CO)c(O)cc2c1C(=O)c1ccc(O)c(O)c1C2=O [Compound 8, 5,6-dihydroxydamnacanthol] | 47.53 ± 0.01 | 61.17 ± 0.02 | > 450 | –
10 | CCN(CC)CCCC(C)Nc1ccnc2cc(Cl)ccc12 (centres unmarked) [chloroquine] | – | – | – | IC50 ([5]; D6, read-out: IC50 (D6)): 0.0147 µM; IC50 ([6]; W2, read-out: IC50 (W2)): 0.522 µM
11 | OC(c1cc(C(F)(F)F)nc2c(C(F)(F)F)cccc12)C1CCCCN1 (centres unmarked) [mefloquine] | – | – | – | IC50 ([5]; P. falciparum D6 strain, positive controls, read-out: IC50 (D6)): 0.0876 µM; IC50 ([6]; P. falciparum W2 strain, positive controls, read-out: IC50 (W2)): 0.00665 µM
